Measurements: patent US20030220346A1 (priority 2003, published 2003)

How the values were obtained:
5-HT1A receptor = target: T1, 5-HT1A receptor (Homo sapiens, UniProt P08908); experiment: human monoamine GPCR binding profile, 5-HT1A; conditions: at least about 30 fold to over 1500 fold lower IC50
T1 construct: expressed in transfected cells
T1 sequence (P08908 1-422): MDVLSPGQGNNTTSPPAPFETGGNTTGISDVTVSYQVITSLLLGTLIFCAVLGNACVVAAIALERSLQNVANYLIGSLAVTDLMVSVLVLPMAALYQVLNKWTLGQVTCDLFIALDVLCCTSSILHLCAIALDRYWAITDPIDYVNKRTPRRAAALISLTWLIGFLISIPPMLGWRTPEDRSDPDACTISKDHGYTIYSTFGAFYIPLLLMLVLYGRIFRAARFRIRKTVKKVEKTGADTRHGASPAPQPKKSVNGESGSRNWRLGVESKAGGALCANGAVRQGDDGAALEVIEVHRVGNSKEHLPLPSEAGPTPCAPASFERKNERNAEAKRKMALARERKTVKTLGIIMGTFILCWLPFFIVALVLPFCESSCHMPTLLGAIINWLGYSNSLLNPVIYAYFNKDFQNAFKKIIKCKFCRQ
From the text: (§1) As known in the art, human monoamine GPCR binding profiles were obtained using heterologously expressed cloned human GPCRs in the binding experiments. Both pKi and IC50 (nM concentration) values were obtained as well as an average value of each from at least three determinations.

Alpha 2A = target: T2, Alpha 2A (Homo sapiens, UniProt P08913); experiment: alpha-adrenergic receptor binding, Alpha 2A; conditions: result in words
T2 construct: expressed in transfected cells
T2 sequence (P08913 1-465): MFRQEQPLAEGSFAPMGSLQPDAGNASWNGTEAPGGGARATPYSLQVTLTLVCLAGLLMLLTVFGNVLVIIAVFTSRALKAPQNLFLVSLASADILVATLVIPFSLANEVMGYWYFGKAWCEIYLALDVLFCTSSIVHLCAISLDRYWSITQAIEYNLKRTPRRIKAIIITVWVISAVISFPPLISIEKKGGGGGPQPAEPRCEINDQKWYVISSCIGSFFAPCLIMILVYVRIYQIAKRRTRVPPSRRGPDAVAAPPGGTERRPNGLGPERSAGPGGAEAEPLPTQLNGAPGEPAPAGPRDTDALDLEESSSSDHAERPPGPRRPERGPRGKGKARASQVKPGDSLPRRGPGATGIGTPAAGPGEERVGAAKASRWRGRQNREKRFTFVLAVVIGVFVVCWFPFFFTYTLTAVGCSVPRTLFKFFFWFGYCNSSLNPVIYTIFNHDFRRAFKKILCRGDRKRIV
Method: as §1
(§2) Dopaminergic receptors D2A, D2B, D3, and D4 were also tested.

D2A = target: T3, D2A (Homo sapiens, UniProt P14416); experiment: dopaminergic receptor binding, D2A; conditions: result in words
T3 construct: expressed in transfected cells
Method: as §1, §2

D2B = target: T4, D2B (Homo sapiens, UniProt P14416); experiment: dopaminergic receptor binding, D2B; conditions: result in words
T4 construct: expressed in transfected cells
Method: as §1, §2

Alpha 2C receptor = target: T5, Alpha 2C receptor (Homo sapiens, UniProt P18825); experiment: alpha-adrenergic receptor binding, Alpha 2C; conditions: result in words
T5 construct: expressed in transfected cells
T5 sequence (P18825 1-462): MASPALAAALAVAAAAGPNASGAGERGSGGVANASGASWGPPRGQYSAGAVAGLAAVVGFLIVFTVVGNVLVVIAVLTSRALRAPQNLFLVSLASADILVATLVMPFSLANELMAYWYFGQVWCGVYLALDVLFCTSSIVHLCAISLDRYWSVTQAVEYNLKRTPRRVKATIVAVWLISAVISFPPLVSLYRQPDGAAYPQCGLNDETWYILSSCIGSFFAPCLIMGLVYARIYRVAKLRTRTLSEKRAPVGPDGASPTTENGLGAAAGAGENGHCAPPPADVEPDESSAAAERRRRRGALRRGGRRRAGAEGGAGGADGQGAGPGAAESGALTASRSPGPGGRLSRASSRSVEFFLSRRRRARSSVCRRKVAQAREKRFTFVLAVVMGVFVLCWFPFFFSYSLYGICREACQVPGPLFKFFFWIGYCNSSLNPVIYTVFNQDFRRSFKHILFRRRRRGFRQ
Method: as §1, §2

D3 = target: T6, D3 (Homo sapiens, UniProt P35462); experiment: dopaminergic receptor binding, D3; conditions: result in words
T6 construct: expressed in transfected cells
Method: as §1, §2

Alpha 2B = target: T7, Alpha 2B (Homo sapiens, UniProt P18089); experiment: alpha-adrenergic receptor binding, Alpha 2B; conditions: result in words
T7 construct: expressed in transfected cells
T7 sequence (P18089 1-450): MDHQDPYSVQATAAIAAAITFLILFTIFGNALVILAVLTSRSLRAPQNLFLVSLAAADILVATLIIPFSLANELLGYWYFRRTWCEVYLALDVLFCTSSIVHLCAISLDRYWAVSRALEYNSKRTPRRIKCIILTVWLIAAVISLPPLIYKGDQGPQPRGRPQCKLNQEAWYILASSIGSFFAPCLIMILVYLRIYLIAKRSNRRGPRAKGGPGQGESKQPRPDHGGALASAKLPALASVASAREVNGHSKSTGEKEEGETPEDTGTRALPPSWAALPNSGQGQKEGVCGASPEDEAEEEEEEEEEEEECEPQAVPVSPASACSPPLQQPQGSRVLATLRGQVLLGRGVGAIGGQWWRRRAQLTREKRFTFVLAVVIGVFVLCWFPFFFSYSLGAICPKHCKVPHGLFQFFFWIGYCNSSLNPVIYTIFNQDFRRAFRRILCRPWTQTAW
Method: as §1, §2

[1] = plasma levels of 3-OH gepirone after administration of gepirone; format: in vivo; conditions: human subjects administered a dose of gepirone; FIG. 2; result in words
Method: “Time (H)” represents time after administration.
Each sample corresponds to a 0.5 ml plasma sample, extracted with 6 ml of (2:1) (v/v) hexane:chloroform for 1 hour. After separation by centrifuge, the organic layer is transferred to a 10 ml conical tube and 90 ul of 1% formic acid is added. The tube is vortexed for 10 minutes and centrifuged for 5 minutes. About 80 ul of the formic acid layer is transferred into injection vials for HPLC/MS analysis.

[2] = cited from earlier work; for half-life: result in words

T4 sequence (P14416 1-414 isoform P14416-2): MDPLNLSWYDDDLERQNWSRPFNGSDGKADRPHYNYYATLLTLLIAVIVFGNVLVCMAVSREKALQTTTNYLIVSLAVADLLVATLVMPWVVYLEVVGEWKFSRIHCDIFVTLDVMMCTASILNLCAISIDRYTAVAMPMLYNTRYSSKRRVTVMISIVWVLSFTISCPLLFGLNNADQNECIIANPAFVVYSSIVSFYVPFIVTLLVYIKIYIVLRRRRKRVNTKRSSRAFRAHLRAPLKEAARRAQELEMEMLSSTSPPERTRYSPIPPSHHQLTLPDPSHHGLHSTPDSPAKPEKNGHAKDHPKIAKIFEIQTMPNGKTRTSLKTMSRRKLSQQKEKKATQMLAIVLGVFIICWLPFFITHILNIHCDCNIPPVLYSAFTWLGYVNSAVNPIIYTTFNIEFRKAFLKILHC
T3 sequence (P14416 whole entry): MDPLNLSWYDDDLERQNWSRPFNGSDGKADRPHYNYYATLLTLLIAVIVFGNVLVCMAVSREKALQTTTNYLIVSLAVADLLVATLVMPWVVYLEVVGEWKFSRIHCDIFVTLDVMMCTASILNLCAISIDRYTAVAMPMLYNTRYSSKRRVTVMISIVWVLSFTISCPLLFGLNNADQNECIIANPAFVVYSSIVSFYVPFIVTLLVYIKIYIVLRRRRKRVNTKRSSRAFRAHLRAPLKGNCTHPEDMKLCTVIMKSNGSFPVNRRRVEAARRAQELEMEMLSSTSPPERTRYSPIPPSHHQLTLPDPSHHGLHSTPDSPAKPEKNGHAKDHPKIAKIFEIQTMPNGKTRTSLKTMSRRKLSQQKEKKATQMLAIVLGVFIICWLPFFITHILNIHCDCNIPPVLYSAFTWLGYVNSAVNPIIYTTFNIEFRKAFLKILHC
T6 sequence (P35462 whole entry): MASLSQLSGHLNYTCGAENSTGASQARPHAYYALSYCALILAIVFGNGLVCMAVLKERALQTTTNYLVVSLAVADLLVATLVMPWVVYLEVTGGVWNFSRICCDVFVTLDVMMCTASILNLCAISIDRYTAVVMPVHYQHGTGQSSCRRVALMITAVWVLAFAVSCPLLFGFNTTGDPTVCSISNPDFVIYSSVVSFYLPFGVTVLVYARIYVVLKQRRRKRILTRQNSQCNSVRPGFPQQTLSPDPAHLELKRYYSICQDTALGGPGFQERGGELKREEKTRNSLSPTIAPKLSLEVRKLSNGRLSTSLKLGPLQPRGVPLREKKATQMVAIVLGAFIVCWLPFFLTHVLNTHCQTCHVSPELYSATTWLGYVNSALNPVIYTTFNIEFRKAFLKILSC

selectivity for the 5-HT1A receptor compared to the 5-HT2, 5-HT6, and 5-HT7 receptors (fold lower IC50) (5-HT1A receptor)	affinity at Alpha 2A (Alpha 2A)	dopaminergic binding at D2A (D2A)	dopaminergic binding at D2B (D2B)	binding at the Alpha 2C receptor (Alpha 2C receptor)	dopaminergic binding at D3 (D3)	affinity at Alpha 2B (Alpha 2B)	Structure (SMILES)	plasma levels of 3-OH gepirone [1]	bioavailability ([2]; delivered orally)	half-life [2]
at least 30 fold	did not display significant affinity	insignificant	insignificant	weak binding	insignificant	did not display significant affinity	CC1(C)CC(=O)N(CCCCN2CCN(c3ncccn3)CC2)C(=O)C1O (centres unmarked) [3-OH gepirone, 4,4-Dimethyl-3-hydroxy-1-[4-[4-(2-pyrimidinyl)-1-piperazinyl]butyl]-2,6-piperidinedione]	available quickly and persists in the plasma for extended periods of time		
							CC1(C)CC(=O)N(CCCCN2CCN(c3ncccn3)CC2)C(=O)C1 [gepirone, 4-dimethyl-1-[4-[4-(2-pyrimidinyl)-1-piperazinyl]butyl]-2,6-piperidinedione]		14-18%	very short
							O=C1CC2(CCCC2)CC(=O)N1CCCCN1CCN(c2ncccn2)CC1 [buspirone]			very short
